pEC50: −log10 of the molar value.
Molecular target: Multidrug resistance-associated protein 1 (ABCC1) (Homo sapiens) (UniProt P33527)
Test: In vitro for its inhibitory activity against MRP1-transfected HeLa-T5 cell line in the presence of doxorubicin

Multidrug resistance-associated protein 1 (ABCC1) (Homo sapiens), sequence (P33527 whole entry, looked up): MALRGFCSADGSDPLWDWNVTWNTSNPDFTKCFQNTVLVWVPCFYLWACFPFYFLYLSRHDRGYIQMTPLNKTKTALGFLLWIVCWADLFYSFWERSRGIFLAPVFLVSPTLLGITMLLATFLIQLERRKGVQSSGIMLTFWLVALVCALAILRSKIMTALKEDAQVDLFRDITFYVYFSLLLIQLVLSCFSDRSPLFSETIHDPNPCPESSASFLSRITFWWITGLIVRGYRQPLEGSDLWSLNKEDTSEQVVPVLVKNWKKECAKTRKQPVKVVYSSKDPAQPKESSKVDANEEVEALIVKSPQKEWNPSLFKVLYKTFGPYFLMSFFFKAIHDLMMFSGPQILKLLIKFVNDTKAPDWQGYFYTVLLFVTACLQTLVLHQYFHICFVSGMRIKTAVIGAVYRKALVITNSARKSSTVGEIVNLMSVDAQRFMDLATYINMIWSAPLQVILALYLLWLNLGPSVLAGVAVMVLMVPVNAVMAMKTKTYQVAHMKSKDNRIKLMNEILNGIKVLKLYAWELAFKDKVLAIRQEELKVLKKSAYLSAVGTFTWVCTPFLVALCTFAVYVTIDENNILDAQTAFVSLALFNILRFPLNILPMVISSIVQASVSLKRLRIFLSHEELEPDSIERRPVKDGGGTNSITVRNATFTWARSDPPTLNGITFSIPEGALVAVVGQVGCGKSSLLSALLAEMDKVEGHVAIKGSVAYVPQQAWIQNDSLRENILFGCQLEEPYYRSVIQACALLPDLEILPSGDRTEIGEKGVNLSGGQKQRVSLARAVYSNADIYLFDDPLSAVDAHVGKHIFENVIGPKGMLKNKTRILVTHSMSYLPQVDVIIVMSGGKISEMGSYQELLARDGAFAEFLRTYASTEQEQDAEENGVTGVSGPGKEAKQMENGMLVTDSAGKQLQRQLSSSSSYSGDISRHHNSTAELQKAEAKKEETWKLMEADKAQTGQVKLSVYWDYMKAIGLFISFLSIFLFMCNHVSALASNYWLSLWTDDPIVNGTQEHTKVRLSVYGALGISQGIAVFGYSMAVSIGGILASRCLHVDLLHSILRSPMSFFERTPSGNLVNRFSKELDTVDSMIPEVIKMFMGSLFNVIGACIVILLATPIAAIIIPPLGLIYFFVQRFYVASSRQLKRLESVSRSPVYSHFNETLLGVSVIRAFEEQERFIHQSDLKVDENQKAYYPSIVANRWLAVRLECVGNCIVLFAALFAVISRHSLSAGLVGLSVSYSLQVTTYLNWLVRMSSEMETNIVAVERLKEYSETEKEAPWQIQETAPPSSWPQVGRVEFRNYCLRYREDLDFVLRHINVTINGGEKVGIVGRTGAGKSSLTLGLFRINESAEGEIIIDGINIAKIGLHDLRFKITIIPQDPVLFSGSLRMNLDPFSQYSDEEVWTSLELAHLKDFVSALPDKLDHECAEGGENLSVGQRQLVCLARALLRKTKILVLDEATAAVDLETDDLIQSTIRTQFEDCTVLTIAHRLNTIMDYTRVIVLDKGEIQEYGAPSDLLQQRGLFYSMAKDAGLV

pEC50 | SMILES
5.39 | COc1ccc(NC(=O)Cc2cccc(-n3c(=O)c4c(C)onc4c4c(Cl)cccc43)c2)cc1OC [2-[3-(9-Chloro-3-methyl-4-oxo-4H-isoxazolo[4,3-c]quinolin-5-yl)-phenyl]-N-(3,4-dimethoxy-phenyl)-acetamide]
5.68 | COc1cc(NC(=O)Cc2cccc(-n3c(=O)c4c(C)onc4c4c(Cl)cccc43)c2)cc(OC)c1 [2-[3-(9-Chloro-3-methyl-4-oxo-4H-isoxazolo[4,3-c]quinolin-5-yl)-phenyl]-N-(3,5-dimethoxy-phenyl)-acetamide]
5.74 | COc1cccc(NC(=O)Cc2cccc(-n3c(=O)c4c(C)onc4c4c(Cl)cccc43)c2)c1 [2-[3-(9-Chloro-3-methyl-4-oxo-4H-isoxazolo[4,3-c]quinolin-5-yl)-phenyl]-N-(3-methoxy-phenyl)-acetamide]
5.49 | Cc1onc2c1c(=O)n(-c1cccc(CC(=O)Nc3ccc(F)cc3)c1)c1cccc(Cl)c21 [2-[3-(9-Chloro-3-methyl-4-oxo-4H-isoxazolo[4,3-c]quinolin-5-yl)-phenyl]-N-(4-fluoro-phenyl)-acetamide]
< 5.00 | COc1ccc(NC(=O)Cc2cccc(-n3c(=O)c4c(C)onc4c4c(Cl)cccc43)c2)cc1 [2-[3-(9-Chloro-3-methyl-4-oxo-4H-isoxazolo[4,3-c]quinolin-5-yl)-phenyl]-N-(4-methoxy-phenyl)-acetamide]
< 5.00 | Cc1onc2c1c(=O)n(-c1cccc(CC(=O)Nc3ccc(S(N)(=O)=O)cc3)c1)c1cccc(Cl)c21 [2-[3-(9-Chloro-3-methyl-4-oxo-4H-isoxazolo[4,3-c]quinolin-5-yl)-phenyl]-N-(4-sulfamoyl-phenyl)-acetamide]
6.19 | COc1cc(N(C)C(=O)Cc2cccc(-n3c(=O)c4c(C)onc4c4c(Cl)cccc43)c2)cc(OC)c1OC [2-[3-(9-Chloro-3-methyl-4-oxo-4H-isoxazolo[4,3-c]quinolin-5-yl)-phenyl]-N-methyl-N-(3,4,5-trimethoxy-phenyl)-acetamide]
< 5.00 | COC(=O)c1ccc(NC(=O)Cc2cccc(-n3c(=O)c4c(C)onc4c4c(Cl)cccc43)c2)cc1 [4-{2-[3-(9-Chloro-3-methyl-4-oxo-4H-isoxazolo[4,3-c]quinolin-5-yl)-phenyl]-acetylamino}-benzoic acid methyl ester]
5.10 | Cc1cc(C(=O)NCc2cccc(-n3c(=O)c4c(C)onc4c4c(Cl)cccc43)c2)no1 [5-Methyl-isoxazole-3-carboxylic acid 3-(9-chloro-3-methyl-4-oxo-4H-isoxazolo[4,3-c]quinolin-5-yl)-benzylamide]
5.00 | Cc1cc(C(=O)N[C@@H]2c3cc(-n4c(=O)c5c(C)onc5c5c(Cl)cccc54)ccc3C[C@H]2O)no1 [5-Methyl-isoxazole-3-carboxylic acid [(1R,2R)-6-(9-chloro-3-methyl-4-oxo-4H-isoxazolo[4,3-c]quinolin-5-yl)-2-hydroxy-indan-1-yl]-amide]
5.83 | COc1cc(OCCc2cccc(-n3c(=O)c4c(C)onc4c4c(Cl)cccc43)c2)cc(OC)c1OC [9-Chloro-3-methyl-5-{3-[2-(3,4,5-trimethoxy-phenoxy)-ethyl]-phenyl}-5H-isoxazolo[4,3-c]quinolin-4-one]
5.75 | COc1cc(CNCc2cccc(-n3c(=O)c4c(C)onc4c4c(Cl)cccc43)c2)cc(OC)c1OC [9-Chloro-3-methyl-5-{3-[(3,4,5-trimethoxy-benzylamino)-methyl]-phenyl}-5H-isoxazolo[4,3-c]quinolin-4-one]
< 5.00 | Cc1onc2c1c(=O)n(-c1cccc(CC(=O)Nc3ccc(C(C)(C)C)cc3)c1)c1cccc(Cl)c21 [N-(4-tert-Butyl-phenyl)-2-[3-(9-chloro-3-methyl-4-oxo-4H-isoxazolo[4,3-c]quinolin-5-yl)-phenyl]-acetamide]
5.40 | Cc1onc2c1c(=O)n(-c1cccc(CC(=O)Nc3ccc4c(c3)OCO4)c1)c1cccc(Cl)c21 [N-Benzo[1,3]dioxol-5-yl-2-[3-(9-chloro-3-methyl-4-oxo-4H-isoxazolo[4,3-c]quinolin-5-yl)-phenyl]-acetamide]
